Measurements from patent US20230324368A1, “Systems, Devices And Methods For Cell Analysis Using ChemFET Sensor Arrays” (Life Technologies Corporation, priority 2020, published 2023).

Legend:
[1] = system: HEPG2 cells; assay: Label-free metabolic profiling (glucose restriction / glucose reintroduction) on ChemFET sensor array, HEPG2 cells; assay type: cell-based, human
From the text: FIG. 18A through FIG. 18B are graphs of data collected during metabolic profiling studies using HEPG2 cells (ATCC-HB-8065), while FIG. 19A and FIG. 19B are graphs of data collected during metabolic profiling studies using A673 cells (ECACC 85111504). FIG. 18A through FIG. 18B are temporal response graphs of counts equivalent to protons (CEP) in microvolts (μV) versus time. As will be described in more detail herein, the pharmacological dissection of metabolic profiling can be performed to understand the contribution of oxidative metabolism and glycolytic metabolism to metabolic profiling. Accordingly, chemical agents, such as oligomycin, antimycin A, rotenone and metformin can used to understand a contribution of oxidative metabolism to cellular response in a metabolic profiling study, while chemical agents, such as 2-deoxy-D-glucose, koningic acid, fasentin, and AM2394 can used to understand a contribution of glycolytic metabolism to cellular response in a metabolic profiling study.
The chip devices used in the studies were ISFET chip devices selective for sensing hydrogen ions, and were chip devices such as chip device 1 of 1 of Table 1. Given that the analyses performed were for metabolic profiling, chip devices with microwells were selected as depicted for chip device 500B of FIG. 5C. […]
(§1) Prior to seeding the devices with cells, each chip device in open format, such as open format chip device 500 of FIG. 2, and were soaked for 30 minutes with 70% ethanol in water, then rinsed with PBS and then rinsed twice with 1.5 mL of a cell culture medium, for example, Dulbecco's Modified […] Medium (DMEM; Gibco™ catalog #11995-065), Minimal Essential Medium (MEM; Gibco™ catalog #11095-080) or McCoy's 5A modified medium (Gibco™ catalog #12330-031). […] After rinsing with the cell culture medium, the devices were ready for addition to each device of a suspension of cells at a density between 5,000 to 30,000 cells in 1 to 1.5 mL of a cell culture medium, pH 7.4. […]

[2] = system: HEPG2 cells; assay: Control microscopy with calcein acetoxymethyl (AM) ester live-cell indicator, HEPG2 cells; assay type: cell-based, human; details: 5 μM koningic acid treated cells, after experiment of FIG. 18B
Procedure: (§2) After completion of each experiment represented by FIG. 18A and FIG. 18B for the HEPG2 cells, and by FIG. 19A and FIG. 19B for the A673 cells, control microscopy studies using calcein acetoxymethyl (AM) ester, a known fluorescent indicator of live cells, were performed. […] These control microscopy studies confirmed that what was observed using the ChemFET-based cell analysis system to perform the studies represented by FIG. 18A through FIG. 19B for both HEPG2 and A673 cells were observed using live cells.

[3] = system: A673 cells; assay: Control microscopy with calcein acetoxymethyl (AM) ester live-cell indicator, A673 cells; assay type: cell-based; details: 5 μM koningic acid treated cells, after experiment of FIG. 19B
Procedure: as §2

[4] = system: A673 cells; assay: Label-free metabolic profiling (glucose restriction / glucose reintroduction) on ChemFET sensor array, A673 cells; assay type: cell-based; details: 5 μM koningic acid pretreatment during glucose restriction; 5 mM glucose reintroduction; FIG. 19A/19B
From the text: FIG. 18A through FIG. 18B are graphs of data collected during metabolic profiling studies using HEPG2 cells (ATCC-HB-8065), while FIG. 19A and FIG. 19B are graphs of data collected during metabolic profiling studies using A673 cells (ECACC 85111504). FIG. 18A through FIG. 18B are temporal response graphs of counts equivalent to protons (CEP) in microvolts (μV) versus time. As will be described in more detail herein, the pharmacological dissection of metabolic profiling can be performed to understand the contribution of oxidative metabolism and glycolytic metabolism to metabolic profiling. […]
as §1

[5] = system: HEPG2 cells; details: FCCP 100 μM; ISFET chip device 2 with microwells; not all cells showed efflux
Procedure: A sensor array device of the present disclosure, such as sensor array device 500 of FIG. 2, has an open structure, thereby allowing the HEPG2 cells to be cultured on the sensor surface in ^˜1 mL of cell culture media. The device was sterilized with 70% Ethanol in water, rinsed and prepared with 100 μg/mL poly-D-lysine in phosphate buffered saline prior to adding cells to facilitate cell adhesion to a chip device surface as depicted in FIG. 5B.
For plating on the sensor array device, the HEPG2 cells were harvested from culture, resuspended at 2.5×10^5 cells per mL in complete cell culture medium (composed of Minimum Essential Medium, MEM, Thermo Fisher Scientific catalog number 11095080) plus 10% Fetal Calf Serum (FCS, Thermo Fisher Scientific Catalog number A3160401) and plated onto the sensor array device for overnight incubation in a cell culture incubator under standard conditions at 37° C. with 95% humidity and 5% carbon dioxide in room air atmosphere. […] Cells were then allowed to adhere to the prepared surface of the sensor array device and grow overnight or longer before microscopic analysis of morphology and qualitative assessment of viability. […]

**Q.** With `O=CC[C@@H](O)[C@H](O)[C@H](O)CO` [2-deoxy-D-glucose] as the compound, how does the “averaged temporal response, counts equivalent to protons (CEP) versus time” value (“averaged temporal response … (CEP) versus time” below) ([1]; 50 mM 2-deoxy-D-glucose introduced at 371 seconds after oligomycin, control without koningic acid, FIG. 18A) read?
**A.** attenuated

**Q.** `CC[C@H]1/C=C/C=C/C[C@@H](C)[C@H](O)[C@@](C)(O)C(=O)[C@@H](C)[C@H](O)[C@@H](C)C(=O)[C@@H](C)[C@H](O)[C@@H](C)/C=C/C(=O)O[C@@H]2[C@H](C)[C@H](CC1)O[C@]1(CC[C@H](C)[C@H](C[C@@H](C)O)O1)[C@H]2C` [oligomycin] was tested. Which “averaged temporal response … (CEP) versus time” value ([1]; 1 μM oligomycin introduced at 295 seconds after glucose, control without koningic acid, FIG. 18A) did it give?
**A.** potentiated

**Q.** How did the “averaged temporal response … (CEP) versus time” value ([1]; 5 μM koningic acid pretreatment during glucose restriction, two to three hours, then glucose, oligomycin, 2-deoxy-D-glucose, FIG. 18B) turn out when `CC(C)[C@H]1CC[C@@]2(CO2)[C@H]2C(=O)OCC(C(=O)O)=C[C@H]12` [koningic acid] was run?
**A.** no change in the averaged signal

**Q.** What about the “acute toxicity, calcein staining profile versus control vehicle treated cultures” value [2] of the same compound?
**A.** no acute toxicity

**Q.** And the “acute toxicity, calcein staining profile versus control vehicle treated cultures” value [3]?
**A.** no acute toxicity

**Q.** And the “averaged temporal response (CEP) to glucose reintroduction with and without koningic acid” value [4]?
**A.** comparable to the results using HEPG2 cells

**Q.** With `N#CC(C#N)=NNc1ccc(OC(F)(F)F)cc1` [FCCP, carbonyl cyanide-4-(trifluoromethoxy) phenylhydrazone] as the compound, how does the “cellular response observed in electroscopic image” value [5] read?
**A.** efflux of cellular contents
